Source: US20210252094A1, “COMPOSITION FOR IMPROVING SLEEP DISORDERS CAUSED BY CAFFEINE CONTAINING CITRUS RIND EXTRACT” (NOAHS CO., LTD., priority 2018, published 2021)
“Also recorded” adds a separate entry of the source.

Tested on: brain hippocampal slices
Assay: Measurement of neural activity of cultured hippocampal slices on microelectrode array (MEA), caffeine-induced
Type: cell-based, Sprague Dawley white young rat
Conditions: for neural activity after washing: 1 mM caffeine plus sample (extract 400 μg/ml, hesperidin 40 μg/ml, narirutin 136 μg/ml), then washed 20 min with artificial cerebrospinal fluid only; for degree of neural activity compared to treatment of caffeine alone: perfused 20 min with 1 mM caffeine plus sample (citrus unshiu peel extract 400 μg/ml, hesperidin 40 μg/ml, narirutin 136 μg/ml), before washing
From the text: A method of organotypic culturing of slices of the brain hippocampus using a thin film used an already commonly used method. Specifically, the brain hippocampus was extracted from a Sprague Dawley white young rat (Orientbio Co., Seungnam, Korea) of 5- to 7-day old, and sliced to a thickness of 350 μm using a tissue slicer (Mickle Laboratory Engineering Co., UK). After 5 to 6 slices were disposed into a thin film insert (Millicell-CM; Millipore, MA) with 0.4-μm holes, put in a 6-well plate (SPL Life Sciences Co., Korea), and then cultured in an incubator kept with 5% CO2 at 36° C. (Dong-A Co., Seoul, Korea). A culture solution (MEM; Welgene, Gyeongsan, South Korea), 20 mM HEPES (Sigma, St. Louis, Mo., USA), a 25% Hank's balanced salt solution (HBSS; Welgene, Gyeongsan, South Korea), 6 g/L D-glucose (Sigma, St. Louis, Mo., USA), 1 mM L-glutamine (Sigma, St. Louis, Mo., USA), 25% horse serum (Welgene, Gyeongsan, South Korea), and 1% penicillin-streptomycin (Gibco BRL, USA), pH=7.1) were changed once every two days, and the culture period was 12 to 14 days, and then used in a subsequent experiment (FIG. 5). After the cultured brain hippocampal slices were carefully isolated from the cultured thin film insert using a pin, the brain hippocampal slices were placed on a 8×8 microelectrode array (MEA; Multi Channel Systems, Germany) with a diameter of 10 μm and an interval of 100 μm coated with 0.01% polyethyleneimine (Sigma, St. Louis, Mo., USA). […] Thereafter, the MEA containing the brain hippocampus was mounted on an amplification device MEA1060 (Multi Channel Systems Inc., Reutlingen, Germany), and the artificial spinal cord solution in the MEA was grounded with Ag/AgCl. During the subsequent experiment, the artificial spinal cord solution into which the 5% CO2 and 95% 02 mixed gas was added was perfused at a rate of 3 mL/min, and the MEA and the artificial spinal cord solution were maintained at 33° C. (FIG. 6) . […] The MEA with the hippocampal tissue read data at a sampling rate of 25 kHz for each channel through a total of 60 channels, and was recorded through a computer using MC_Rack and MC_Data Tool (Multi Channel Systems, GmbH) software. A 4-stage band pass filter was used to extract meaningful spikes from all recorded signals, and Equation is as follows. Wherein, X represents a root mean square (RMS) for noise, and k is a factor that determines each threshold. Here, the threshold consisted of a total of three factors (0.6, 1 and 3). […] This process was performed using a MATLAB (Mathworks Inc., Natick, Massachusetts, USA) program for all 60 channels (FIG. 7).

Cn1c(=O)c2c(ncn2C)n(C)c1=O [caffeine, 1,3,7-trimetnylxanthine]
increase of neural activity after washing (1 mM caffeine alone, after washing): ≥ 200%

COc1ccc([C@@H]2CC(=O)c3c(O)cc(O[C@@H]4O[C@H](CO[C@@H]5O[C@@H](C)[C@H](O)[C@@H](O)[C@H]5O)[C@@H](O)[C@H](O)[C@H]4O)cc3O2)cc1O [hesperidin]
neural activity after washing: maintained without a significant increase; also recorded: neural activity inhibitory effect persisted | degree of neural activity compared to treatment of caffeine alone: significantly reduced

C[C@@H]1O[C@@H](OC[C@H]2O[C@@H](Oc3cc(O)c4c(c3)O[C@H](c3ccc(O)cc3)CC4=O)[C@H](O)[C@@H](O)[C@@H]2O)[C@H](O)[C@H](O)[C@H]1O [narirutin]
neural activity after washing: maintained without a significant increase; also recorded: neural activity inhibitory effect persisted | degree of neural activity compared to treatment of caffeine alone: significantly reduced
